Results published in patent US20250152605A1, “METHOD AND DRUG FOR TREATING NEURONAL CEROID LIPOFUSCINOSIS” (priority 2021, published 2025).
Where a name gives a salt, the structure may show the parent alone.

Key:
[1] = tested on: BFP-LC3 stably expressing NRK cells; assay: Lysotracker staining of BFP-LC3 stably expressing NRK cells; format: cell-based, rat; settings: treatment for 18 hours, compared with control cells
Protocol: Moreover, after treating BFP-LC3 stably expressing NRK cells with these seven small molecule compounds for 18 hours, staining with Lysotracker dye was performed.

[2] = tested on: CLN3^Δex7/8 human neurons; assay: Lysotracker staining of CLN3^Δex7/8 human neurons, flow cytometry; format: cell-based
Protocol: In analyzing the mean fluorescence intensity of neural stem cells and neuronal staining or single cell establishment of NRK cells, flow cytometry was used: the cell medium was aspirated off, after wash with dPBS once, the digestive enzyme corresponding to the cell type was added to digest into single cells; the supernatant was removed by centrifugation, and the cells were resuspended with 1 mL of fresh medium; the cell suspension with filtered through 40 μm filter membrane and the single cell filtrate was collected; the single cell filtrate was transferred to a flow tube and analyzed or sorted using BD FACS Aria III; in the analysis, the fluorescence intensity of 1×10^4 cells for each sample was analyzed to obtain the mean fluorescence intensity (MFI); for sorting, cells were received in 96 well plates with medium, one cell per well to establish a cell line.
Studies above have shown that CLN3^Δex7/8 human neurons feature lysosomal acidity dysregulation. To investigate the effect of Compound G on lysosomal acidity in CLN3^Δex7/8 neurons, Lysotracker dye was used for staining and flow cytometry was used for analyzing the fluorescence intensity of Lysotracker dye in cells.

[3] = tested on: SCMAS protein; assay: SCMAS protein storage in neurons (immunofluorescence staining and western blot); format: cell-based, human; settings: CLN3^Δex7/8 neurons
Protocol: Sample preparation: for adherent cultured cells, exemplified by cells cultured in a six-well cell plate, the cell medium was aspirated and the cells were washed once with dPBS. About 100 μL of RIPA lysate (50 mM Tris-HCl, pH 7.5, 150 mM NaCl, 0.25% Na-deoxycholate, 0.1% NP-40, 0.1% Triton X-100) containing protease inhibitors and phosphatase inhibitors was added to each well. The cell lysate was scraped off completely with a cell scraper and collected into 1.5 mL EP tubes. Lysis was continued for 30 minutes on ice. For animal tissue, the weight of the animal tissue was weighed, and RIPA lysate containing protease inhibitors and phosphatase inhibitors was added with five times the volume of the animal tissue. The tissue was grinded on ice with a tissue grinder until there is no obvious tissue mass, collected into 1.5 mL EP tubes, and placed on ice for further lysis for 30 min. […]

[4] = tested on: NRK cells; assay: Lysotracker staining of NRK cells, flow cytometry; format: cell-based, rat
Source text: The impact of increased p62 protein levels on the cellular lysosomal functions was detected: GFP-p62 proteins and GFP proteins of the control group were overexpressed in NRK cells, and Lysotracker dye was used to detect the acidity of lysosomes in GFP-positive cells.

Row | SMILES | intracellular Lysotracker staining (lysosomal acidity) [1] | Lysotracker fluorescence intensity in CLN3^Δex7/8 human neurons [2] | abnormal storage of SCMAS protein [3] | intracellular lysosomal acidity (Lysotracker) [4]
1 | CO/C1=C\C(C)=C\[C@@H](C)[C@@H](O)[C@@H](C)C/C(C)=C/C=C/[C@H](OC)[C@@H]([C@@H](C)[C@@H](O)[C@H](C)[C@@]2(O)C[C@@H](O)[C@H](C)[C@@H](C(C)C)O2)OC1=O [Baf-A1, bafilomycin A1] | significant decrease in lysosomal acidity | – | – | –
2 | COC(=O)/C=C/C(=O)OC [DMF, dimethyl fumarate, reference compound] | – | significantly increased | significantly reduced | significantly increase the intracellular lysosomal acidity
